Results on 54 molecules are retold here after US8044073B2, “Aminobenzimidazoles and benzimidazoles as inhibitors of respiratory syncytial virus replication” (Tibotec Pharmaceuticals, priority 2003, dated 2011).

For one experiment, the system named is Respiratory Syncytial Virus. Put plainly: In vitro screening for activity against RSV (tetrazolium-based colorimetric assay, protection against viral cytopathology). The note with it: Table 1; RSV in HeLa cells, MTT, seven days after infection; pEC50 = -log of EC50 in molar units. The experiment is classed as cell-based. The text has this: The percent protection against cytopathology caused by viruses (antiviral activity or EC50) achieved by tested compounds and their cytotoxicity (CC50) are both calculated from dose-response curves. The selectivity of the antiviral effect is represented by the selectivity index (SI), calculated by dividing the CC50 (cytotoxic dose for 50% of the cells) by the EC50 (antiviral activity for 50% of the cells). The tables in the above experimental part list the category to which each of the prepared compounds belong: Compounds belonging to activity category “A” have a pEC50 (−log of EC50 when expressed in molar units) equal to or more than 7. Compounds belonging to activity category “B” have a pEC50 value between 6 and 7.
Automated tetrazolium-based colorimetric assays were used for determination of EC50 and CC50 of test compounds. Flat-bottom, 96-well plastic microtiter trays were filled with 180 μl of Eagle's Basal Medium, supplemented with 5% FCS (0% for FLU) and 20 mM Hepes buffer. Subsequently, stock solutions (7.8× final test concentration) of compounds were added in 45 μl volumes to a series of triplicate wells so as to allow simultaneous evaluation of their effects on virus- and mock-infected cells. Five five-fold dilutions were made directly in the microtiter trays using a robot system. Untreated virus controls, and HeLa cell controls were included in each test. Approximately 100 TCID50 of Respiratory Syncytial Virus was added to two of the three rows in a volume of 50 μl. The same volume of medium was added to the third row to measure the cytotoxicity of the compounds at the same concentrations as those used to measure the antiviral activity. After two hours of incubation, a suspension (4×10^5 cells/ml) of HeLa cells was added to all wells in a volume of 50 μl. The cultures were incubated at 37° C. in a 5% CO2 atmosphere. Seven days after infection the cytotoxicity and the antiviral activity was examined spectrophotometrically. To each well of the microtiter tray, 25 μl of a solution of MTT (3-(4,5-dimethylthiazol-2-yl)-2,5-diphenyltetrazolium bromide) was added. The trays were further incubated at 37° C. for 2 hours, after which the medium was removed from each cup. Solubilization of the formazan crystals was achieved by adding 100 μl 2-propanol. Complete dissolution of the formazan crystals were obtained after the trays have been placed on a plate shaker for 10 min. Finally, the absorbances were read in an eight-channel computer-controlled photometer (Multiskan MCC, Flow Laboratories) at two wavelengths (540 and 690 nm). The absorbance measured at 690 nm was automatically subtracted from the absorbance at 540 nm, so as to eliminate the effects of non-specific absorption.
The percent protection against cytopathology caused by viruses (antiviral activity or EC50) achieved by tested compounds and their cytotoxicity (CC50) were both calculated from dose-response curves. The selectivity of the antiviral effect is represented by the selectivity index (SI), calculated by dividing the CC50 (cytotoxic dose for 50% of the cells) by the EC50 (antiviral activity for 50% of the cells).
As for `Cc1ccc(O)c(Cn2c(N)nc3ccc(CNc4cccc5cccnc45)cc32)n1` [Compound 44], the Activity is listed as 7.6. Still for that read-out and setting: for `COc1ccc(NCc2ccc3nc(N)n(Cc4nc(C)ccc4O)c3c2)cc1F` [Compound 28] the value was 7.8.

Consider `Cc1cc(C)cc(NCc2ccc3nc(N)n(Cc4nc(C)ccc4O)c3c2)c1` [Compound 9], for which the Activity was 8.4. The same measure, in the same setting: with `COc1cc(NCc2ccc3nc(N)n(Cc4nc(C)ccc4O)c3c2)cc(C(F)(F)F)c1` [Compound 57] the figure was 7.4; with `Cc1ccc(O)c(Cn2c(N)nc3ccc(CNc4ccc(S(N)(=O)=O)cc4)cc32)n1` [Compound 10], 8.4; with `Cc1ccc(O)c(Cn2c(N)nc3ccc(CNc4cccc(C(=N)N)c4)cc32)n1` [Compound 41], 7.7. On the same count and under the same terms, for `Cc1ccc(O)c(Cn2c(N)nc3ccc(CNc4ccc(F)c(F)c4)cc32)n1` [Compound 55] the value was 7.4; for `CC(=O)c1cccc(NCc2ccc3nc(N)n(Cc4nc(C)ccc4O)c3c2)c1` [Compound 42], 7.6; for `Cc1ccc(O)c(Cn2c(N)nc3ccc(CNc4ccccc4)cc32)n1` [Compound 21], 7.9. The same measure, in the same setting: with `Cc1ccc(O)c(Cn2c(N)nc3ccc(CNc4ccccc4CO)cc32)n1` [Compound 11] the figure was 8.4; with `Cc1ccc(O)c(Cn2c(N)nc3ccc(CNc4cccc(CC(=O)O)c4)cc32)n1` [Compound 46], 7.6; with `Cc1ccc(O)c(Cn2c(N)nc3ccc(CNc4cc(C(=O)O)cc(C(F)(F)F)c4)cc32)n1` [Compound 78], 6.6. Molecule `C#Cc1ccc(CCO)c(NCc2ccc3nc(N)n(Cc4nc(C)ccc4O)c3c2)c1` [Compound 92] had an Activity of 10.4. The same measure, in the same setting: with `Cc1ccc(O)c(Cn2c(N)nc3ccc(CNc4cccc(Cl)c4)cc32)n1` [Compound 5] the figure was 8.5; with `Cc1ccc(O)c(Cn2c(N)nc3ccc(CNc4ccc5c(c4)CCC5)cc32)n1` [Compound 36], 7.7; with `Cc1ccc(O)c(Cn2c(N)nc3ccc(CNc4cc(OCC(F)(F)F)cc(OCC(F)(F)F)c4)cc32)n1` [Compound 80], 6.2.

Regarding `Cc1ccc(O)c(Cn2c(N)nc3ccc(CNc4cccc(C)c4CCO)cc32)n1` [Compound 84], the Activity is 9. On the same count and under the same terms, for `Cc1ccc(O)c(Cn2c(N)nc3ccc(CNc4ccc(Br)cc4)cc32)n1` [Compound 54] the value was 7.5; for `Cc1ccc(O)c(Cn2c(N)nc3ccc(CNc4cccc(C)c4C)cc32)n1` [Compound 19], 8.0. As to `Cc1ccc(O)c(Cn2c(N)nc3ccc(CNc4cccc(F)c4)cc32)n1` [Compound 22], the Activity is on record as 7.9. The same measure, in the same setting: with `Cc1ccc(O)c(Cn2c(N)nc3ccc(CNc4ccc(Br)c(F)c4)cc32)n1` [Compound 63] the figure was 7.3; with `Cc1ccc(O)c(Cn2c(N)nc3ccc(CNc4ccc(C(N)=O)cc4)cc32)n1` [Compound 85], 8.4; with `COc1cc(NCc2ccc3nc(N)n(Cc4nc(C)ccc4O)c3c2)cc(OC)c1` [Compound 34], 7.7. The same measure, in the same setting: for `COc1ccc(NCc2ccc3nc(N)n(Cc4nc(C)ccc4O)c3c2)cc1O` [Compound 75] the value was 7; for `Cc1ccc(O)c(Cn2c(N)nc3ccc(CNc4ccccc4C(C)(C)C)cc32)n1` [Compound 70], 7.2. The same measure, in the same setting: with `Cc1ccc(O)c(Cn2c(N)nc3ccc(CNc4cc(Br)cc(C(F)(F)F)c4)cc32)n1` [Compound 37] the figure was 7.7. Molecule `CC(=O)Nc1ccc(NCc2ccc3nc(N)n(Cc4nc(C)ccc4O)c3c2)cc1` [Compound 53] showed an Activity of 7.5.

`Cc1ccc(O)c(Cn2c(N)nc3ccc(CNc4ccccc4F)cc32)n1` [Compound 40] came in with an Activity of 7.7.

Still in this experiment, the particulars now being: Table 2; RSV in HeLa cells, MTT, seven days after infection; pEC50 = -log of EC50 in molar units.
Consider `Cc1ccc(O)c(Cn2c(N)nc3cc(CNc4cc(Cl)cc(Cl)c4)ccc32)n1` [Compound 121], for which the Activity turned out to be 5.8. On the same count and under the same terms, with `CC(=O)c1cccc(NCc2ccc3c(c2)nc(N)n3Cc2nc(C)ccc2O)c1` [Compound 118] the figure was 6.4. Same read-out and setting: for `Cc1ccc(O)c(Cn2c(N)nc3cc(CNc4cccc5cccnc45)ccc32)n1` [Compound 123] the value was less than 4.0; for `Cc1ccc(O)c(Cn2c(N)nc3cc(CNc4cccc(Br)c4)ccc32)n1` [Compound 126], less than 4.0; for `Cc1cc(C)cc(NCc2ccc3c(c2)nc(N)n3Cc2nc(C)ccc2O)c1` [Compound 117], 6.8.

Still in this experiment, the particulars now being: Table 3; RSV in HeLa cells, MTT, seven days after infection; pEC50 = -log of EC50 in molar units.
On to `Cc1ccc(O)c(Cn2c(N)nc3ccc(CN(C)c4ccccc4CCO)cc32)n1` [Compound 166], for which the Activity stood at 6.8. On the same count and under the same terms, with `Cc1cccc(N(CCOCCO)Cc2ccc3nc(N)n(Cc4nc(C)ccc4O)c3c2)c1.Cl` [Compound 171] the figure was 8.9. `Cc1ccc(O)c(Cn2c(N)nc3ccc(CN(Cc4ccccc4)c4ccccc4)cc32)n1` [Compound 133] had an Activity of 7.5.

The experiment is the same for the next values; noted with them: Table 5a; RSV in HeLa cells, MTT, seven days after infection; pEC50 = -log of EC50 in molar units.
For the molecule `CNc1nc2cc(CO)ccc2n1Cc1nc(C)ccc1O` [Compound 202], the Activity is less than 4.0.

Staying with this experiment, now noted: Table 5b; RSV in HeLa cells, MTT, seven days after infection; pEC50 = -log of EC50 in molar units.
As for `Cc1ccc(CCCO)c(NCc2ccc3nc(N)n(Cc4cccc(Br)n4)c3c2)c1` [Compound 212], the Activity amounted to 7.5.

Staying with this experiment, now noted: Table 6; numeric activity values, pEC50 (−log of EC50 in molar units).
`Cc1ccc(O)c(Cn2cnc3cc(C(O)c4ccccc4)ccc32)n1.O=C(O)C(=O)O` (stereo not drawn) [Compound 274] had an Activity of less than 4.0. For the molecule `Cc1ccc(O)c(Cn2cnc3cc(NC(=O)Cc4ccccn4)ccc32)n1` [Compound 281], the Activity is less than 4.0. Still for that read-out and setting: for `Cc1ccc(O)c(Cn2cnc3cc(CNCCc4ccccc4)ccc32)n1` [Compound 253] the value was less than 4.0. Still for that read-out and setting: for `Cc1cccc(NCc2ccc3c(c2)ncn3Cc2nc(C)ccc2O)c1` [Compound 265] the value was less than 4.0. On the same count and under the same terms, for `Cc1ccc(O)c(Cn2cnc3ccc(CNc4cccc(C)c4C)cc32)n1` [Compound 284] the value was less than 4.0; for `Cc1ccc(O)c(Cn2cnc3cc(CNc4cccc(Br)c4)ccc32)n1` [Compound 287], less than 4.0. For the molecule `Cc1ccc(O)c(Cn2cnc3ccc(NC(=O)CCc4ccccc4)cc32)n1` [Compound 277], the Activity is reported as less than 4.0. The same measure, in the same setting: for `Cc1ccc(O)c(Cn2cnc3cc(C=CC#N)ccc32)n1` [Compound 252] the value was less than 4.0; for `Cc1ccc(O)c(Cn2cnc3cc(CNCCN(C)C)ccc32)n1` [Compound 255], less than 4.0; for `Cc1ccc(O)c(Cn2cnc3cc(NC(=O)c4cccnc4)ccc32)n1` [Compound 279], less than 4.0. The molecule `Cc1ccc(O)c(Cn2cnc3cc(CNC4CCNCC4)ccc32)n1.Cl` [Compound 262] showed an Activity of less than 4.0.

For the molecule `Cc1ccc(O)c(Cn2cnc3cc(CNCCCC4CCC(=O)N4)ccc32)n1` (stereo not drawn) [Compound 241], the Activity is on record as 4.5. Same read-out and setting: for `Cc1ccc(O)c(Cn2cnc3cc(CNCc4ccco4)ccc32)n1` [Compound 271] the value was less than 4.0. Still for that read-out and setting: for `Cc1ccc(O)c(Cn2cnc3cc(CNc4cccc(C)c4C)ccc32)n1` [Compound 295] the value was less than 4.0.

The experiment is the same for the next values; noted with them: human respiratory syncytial virus, 168 h; Table 4; RSV in HeLa cells, MTT, seven days after infection; pEC50 = -log of EC50 in molar units; read-out: Activity (converted).
With `Cc1ccc(O)c(Cn2cnc3ccc(CNc4cccc(Cl)c4)cc32)n1` [Compound 186, 2-{6-[(3-chloro-phenylamino)-methyl]-benzoimidazol-1-ylmethyl}-6-methyl-pyridin-3-ol], the EC50 was 1.58 µM.

Still in this experiment, the particulars now being: human respiratory syncytial virus, 168 h; Table 5b; RSV in HeLa cells, MTT, seven days after infection; pEC50 = -log of EC50 in molar units; read-out: Activity (converted).
`Nc1nc2ccc(CO)cc2n1Cc1cccc2cccnc12` [Compound 222, (2-amino-3-quinolin-8-ylmethyl-3H-benzoimidazol-5-yl)-methanol]: the EC50 is 39.8 µM.
